Experiments:
[1] = Permeability of the compound by PAMPA; format: ADME; conditions: read-out: permeability
in vitro [2] = conditions: human, HepG2 cells
Description: Cytotoxicity against human HepG2 cells assessed as cell viability at 300 uM after 24 hrs by MTT assay relative to control

HepG2 = test: Cytotoxicity against human HepG2 cells assessed as cell viability after 24 hrs by MTT assay relative to control; format: cell-based; conditions: hepg2, 24 h
[3] = Neurotoxicity in Wistar rat primary cortical neurons assessed as decrease in cell viability at 100 uM by XTT assay; format: toxicity, cell-based; conditions: cerebral cortex neuron
in vitro [4] = conditions: human, HepG2 cells; remark: listed apart in the source
Description: Cytotoxicity against human HepG2 cells assessed as cell viability at 3 uM after 24 hrs by MTT assay relative to control

Acetylcholinesterase [5] = target: Acetylcholinesterase (Homo sapiens, UniProt P22303)
Description: Inhibition of human AChE using acetylthiocholine iodide as substrate incubated for 10 mins prior to substrate addition measured after 15 mins by Ellman's method

cells = conditions: Rattus norvegicus, Wistar, Cerebral cortex neuron, 24 h
Description: Neuroprotective activity in 20 uM rotenone and 10 uM oligomycin-treated Wistar rat primary cortical neurons assessed as increase in cell viability after 24 hrs by XTT assay

in vitro [6] = conditions: human, HepG2 cells; remark: listed apart in the source
Description: Cytotoxicity against human HepG2 cells assessed as cell viability at 10 uM after 24 hrs by MTT assay relative to control

in vitro [7] = conditions: human, HepG2 cells; remark: listed apart in the source
Description: Cytotoxicity against human HepG2 cells assessed as cell viability at 1 uM after 24 hrs by MTT assay relative to control

in vitro [8] = conditions: human, HepG2 cells; remark: listed apart in the source
Description: Cytotoxicity against human HepG2 cells assessed as cell viability at 100 uM after 24 hrs by MTT assay relative to control

Cholinesterase = Cholinesterase (Homo sapiens, UniProt P06276)
Description: Inhibition of human BuChE using butyrylthiocholine iodide as substrate incubated for 10 mins prior to substrate addition measured after 15 mins by Ellman's method

[9] = Neurotoxicity in Wistar rat primary cortical neurons assessed as decrease in cell viability at 50 uM by XTT assay; format: toxicity, cell-based; conditions: cerebral cortex neuron
in vitro [10] = conditions: human, HepG2 cells; remark: listed apart in the source
Description: Cytotoxicity against human HepG2 cells assessed as cell viability at 30 uM after 24 hrs by MTT assay relative to control

[11] = Inhibition of voltage-dependent Ca2+ channel; conditions: concentration not given here
Acetylcholinesterase [12] = target: T1, Acetylcholinesterase (Electrophorus electricus, UniProt O42275); test: Mixed-type inhibition of electric eel AChE using acetylthiocholine iodide as substrate by Ellman's method
[13] = Antioxidant activity assessed as AAPH-induced radical scavenging activity incubated for 15 mins prior to AAPH induction measured every 1 min for 80 mins by ORAC-FL assay relative to trolox; format: functional
Acetylcholinesterase [14] = target: T1, Acetylcholinesterase; test: Inhibition of electric eel AChE

Chain of Acetylcholinesterase (Homo sapiens, UniProt P22303) (P22303 whole entry): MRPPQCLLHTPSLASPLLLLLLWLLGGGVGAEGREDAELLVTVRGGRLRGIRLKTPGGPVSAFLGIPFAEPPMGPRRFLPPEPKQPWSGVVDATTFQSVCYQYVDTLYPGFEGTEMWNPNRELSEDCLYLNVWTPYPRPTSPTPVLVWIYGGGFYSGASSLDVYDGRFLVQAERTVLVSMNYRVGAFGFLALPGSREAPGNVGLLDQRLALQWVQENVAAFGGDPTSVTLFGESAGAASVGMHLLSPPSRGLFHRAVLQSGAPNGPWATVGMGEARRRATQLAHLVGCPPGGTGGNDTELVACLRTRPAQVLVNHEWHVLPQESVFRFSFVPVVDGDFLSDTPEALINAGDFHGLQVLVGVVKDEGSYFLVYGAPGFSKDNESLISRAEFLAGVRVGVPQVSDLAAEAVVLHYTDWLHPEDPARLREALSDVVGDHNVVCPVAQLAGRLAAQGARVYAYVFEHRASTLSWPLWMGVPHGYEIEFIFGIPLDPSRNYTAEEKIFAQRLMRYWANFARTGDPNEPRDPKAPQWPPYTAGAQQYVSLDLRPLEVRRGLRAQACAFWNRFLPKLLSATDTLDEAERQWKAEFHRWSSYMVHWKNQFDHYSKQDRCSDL
Chain of Cholinesterase (P06276 whole entry): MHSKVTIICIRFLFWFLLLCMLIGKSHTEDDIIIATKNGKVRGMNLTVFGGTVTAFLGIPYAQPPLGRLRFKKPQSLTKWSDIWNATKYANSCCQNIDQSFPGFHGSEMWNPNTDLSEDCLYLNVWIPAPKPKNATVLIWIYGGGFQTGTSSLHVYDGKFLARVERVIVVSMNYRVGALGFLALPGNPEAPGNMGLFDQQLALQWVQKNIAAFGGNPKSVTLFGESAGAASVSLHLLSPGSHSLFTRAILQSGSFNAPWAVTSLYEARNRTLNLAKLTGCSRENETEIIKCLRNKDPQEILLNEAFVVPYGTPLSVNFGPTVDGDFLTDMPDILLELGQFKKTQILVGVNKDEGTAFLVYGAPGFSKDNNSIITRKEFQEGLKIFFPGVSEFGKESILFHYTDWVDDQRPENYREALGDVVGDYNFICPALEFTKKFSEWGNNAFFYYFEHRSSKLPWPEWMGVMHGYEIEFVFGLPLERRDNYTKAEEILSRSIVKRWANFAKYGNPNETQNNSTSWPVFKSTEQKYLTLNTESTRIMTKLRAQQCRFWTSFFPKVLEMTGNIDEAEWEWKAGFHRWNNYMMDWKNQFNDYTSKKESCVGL
T1 sequence (O42275 whole entry): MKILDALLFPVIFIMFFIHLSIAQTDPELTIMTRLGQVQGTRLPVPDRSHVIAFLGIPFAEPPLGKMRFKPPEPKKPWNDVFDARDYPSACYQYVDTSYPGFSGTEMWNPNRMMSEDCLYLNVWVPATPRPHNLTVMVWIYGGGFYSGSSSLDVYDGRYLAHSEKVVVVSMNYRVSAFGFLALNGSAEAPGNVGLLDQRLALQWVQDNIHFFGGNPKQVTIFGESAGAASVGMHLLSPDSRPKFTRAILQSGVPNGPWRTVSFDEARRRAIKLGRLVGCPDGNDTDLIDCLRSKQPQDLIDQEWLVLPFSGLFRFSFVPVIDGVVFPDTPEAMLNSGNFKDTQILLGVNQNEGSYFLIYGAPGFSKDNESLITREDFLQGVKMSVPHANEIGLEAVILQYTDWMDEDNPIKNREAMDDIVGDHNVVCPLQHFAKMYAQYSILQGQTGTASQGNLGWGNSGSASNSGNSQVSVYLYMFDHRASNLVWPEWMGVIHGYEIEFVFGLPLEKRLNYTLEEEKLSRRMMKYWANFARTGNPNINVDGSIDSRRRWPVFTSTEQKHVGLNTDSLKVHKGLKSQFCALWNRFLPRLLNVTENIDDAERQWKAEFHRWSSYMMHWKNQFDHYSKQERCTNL

With `Nc1c2c(nc3c1C(c1ccc(Cl)c(Cl)c1)c1ccc4ccccc4c1O3)CCCC2` (racemic) the Papp [1] was 12.3 ×10⁻⁶ cm/s, the viability at 24 h, 300 µM (in vitro [2]) was 61% and the Activity (HepG2) was “Dose-dependent effect”. The Activity [3] was 40%, the viability at 24 h, 3 µM (in vitro [4]) was 86.2% and the IC50 (Acetylcholinesterase [5]) was 5.07 µM. The EC50 (cells) was 3.28 µM, the viability at 24 h, 10 µM (in vitro [6]) was 79.9% and the viability at 24 h, 1 µM (in vitro [7]) was 97.5%. The viability at 24 h, 100 µM (in vitro [8]) was 63.4%, the IC50 (Cholinesterase) was greater than 10 µM and the Activity [9] was “Non-toxic”. It also gave a viability at 24 h, 30 µM (in vitro [10]) of 68.1%.
With `COc1ccc(C2c3ccc4ccccc4c3Oc3nc4c(c(N)c32)CCCC4)c(OC)c1` (racemic) the Papp [1] was 14.6 ×10⁻⁶ cm/s, the viability at 24 h, 300 µM (in vitro [2]) was 74.8% and the Activity (HepG2) was “Dose-dependent effect”. For the same molecule, the Activity [3] was 40%, the viability at 24 h, 3 µM (in vitro [4]) was 84.2% and the IC50 (Acetylcholinesterase [5]) was 0.37 µM. The EC50 (cells) was 11.1 µM, the viability at 24 h, 10 µM (in vitro [6]) was 85.3% and the viability at 24 h, 1 µM (in vitro [7]) was 97.8%. For the same molecule, the viability at 24 h, 100 µM (in vitro [8]) was 78.9%, the IC50 (Cholinesterase) was greater than 10 µM and the Activity [9] was “Non-toxic”. It also gave a viability at 24 h, 30 µM (in vitro [10]) of 76.9%.
Work on `Nc1c2c(nc3c1C(c1ccc(O)cc1)c1ccc4ccccc4c1O3)CCCC2` (racemic) yielded an IC50 (Acetylcholinesterase [5]) of 7.83 µM and an IC50 (Cholinesterase) greater than 10 µM.
Work on `COc1ccccc1C1c2ccc3ccccc3c2Oc2nc3c(c(N)c21)CCCC3` (racemic) yielded an IC50 (Acetylcholinesterase [5]) of 4.53 µM and an IC50 (Cholinesterase) of 9.37 µM.
In the case of `COc1cc(C2c3ccc4ccccc4c3Oc3nc4c(c(N)c32)CCCC4)cc(OC)c1OC` (racemic), the Papp [1] is reported as 23.4 ×10⁻⁶ cm/s, the viability at 24 h, 300 µM (in vitro [2]) is reported as 93.5% and the Activity (HepG2) is reported as “Dose-dependent effect”. It also gave a viability at 24 h, 3 µM (in vitro [4]) of 95.6%, an IC50 (Acetylcholinesterase [5]) of 3.51 µM and an EC50 (cells) of 4.38 µM. The viability at 24 h, 10 µM (in vitro [6]) was 96.4%, the viability at 24 h, 1 µM (in vitro [7]) was 96.5% and the viability at 24 h, 100 µM (in vitro [8]) was 94.5%. For the same molecule, the IC50 (Cholinesterase) was greater than 10 µM, the Activity [9] was “Non-toxic” and the viability at 24 h, 30 µM (in vitro [10]) was 96.6%.
Work on `Nc1c2c(nc3c1C(c1ccccc1)c1ccc4ccccc4c1O3)CCCC2` (racemic) yielded an IC50 (Acetylcholinesterase [5]) of 0.3 µM and an IC50 (Cholinesterase) greater than 10 µM.
For `CCOC(=O)C1=C(C)Oc2nc3c(c(N)c2C1c1ccc(OC)cc1)CCCC3` (stereo not drawn), the inhibition [11] was 50%.
In the case of `Cc1ccc(C2c3ccc4ccccc4c3Oc3nc4c(c(N)c32)CCCC4)cc1` (racemic), the IC50 (Acetylcholinesterase [5]) is reported as 0.4 µM and the IC50 (Cholinesterase) is reported as greater than 10 µM.
`Nc1c2c(nc3c1C(c1c(Cl)cccc1Cl)c1ccc4ccccc4c1O3)CCCC2` (racemic) gave an IC50 (Acetylcholinesterase [5]) of 4.01 µM and an IC50 (Cholinesterase) greater than 10 µM.
For `COc1cc(C2c3ccc4ccccc4c3Oc3nc4c(c(N)c32)CCCC4)ccc1O` (racemic), the IC50 (Acetylcholinesterase [5]) was 0.33 µM, the Ki (Acetylcholinesterase [12]) was 81 nM and the fold change (FC) [13] was 1.5. The IC50 (Cholinesterase) was greater than 10 µM.
Molecule `CCOC(=O)c1c(C)nc2nc3c(c(N)c2c1-c1ccc(F)cc1)CCCC3` has an IC50 (Acetylcholinesterase [14]) of 710 nM and an inhibition [11] of 38%.
For `Nc1c2c(nc3c1C(c1ccc([N+](=O)[O-])cc1)c1ccc4ccccc4c1O3)CCCC2` (racemic), the Papp [1] was 16.1 ×10⁻⁶ cm/s, the viability at 24 h, 300 µM (in vitro [2]) was 72.1% and the Activity (HepG2) was “Dose-dependent effect”. For the same molecule, the Activity [3] was 40%, the viability at 24 h, 3 µM (in vitro [4]) was 93% and the IC50 (Acetylcholinesterase [5]) was 5.74 µM. The EC50 (cells) was 2.36 µM, the viability at 24 h, 10 µM (in vitro [6]) was 92.6% and the viability at 24 h, 1 µM (in vitro [7]) was 95%. For the same molecule, the viability at 24 h, 100 µM (in vitro [8]) was 85%, the IC50 (Cholinesterase) was greater than 10 µM and the Activity [9] was “Non-toxic”. It also gave a viability at 24 h, 30 µM (in vitro [10]) of 90.3%.

Source: ChEMBL document CHEMBL2203041, “Synthesis, biological assessment, and molecular modeling of racemic 7-aryl-9,10,11,12-tetrahydro-7H-benzo[7,8]chromeno[2,3-b]quinolin-8-amines as potential drugs for the treatment of Alzheimer's disease” (Eur J Med Chem, 2012)
